# Assay results reported in US20230131501A1, “THERAPEUTIC USES OF INHIBITORS OF THE RNA-BINDING PROTEIN HuR” (University of Kansas, priority 2020, published 2023).
# What was measured:
# [1] = target: T1, HuR protein interaction with the ARE site of Msi1 mRNA (HuR-Msi1^ARE) (Homo sapiens, UniProt Q15717); test: Fluorescence polarization (FP) assay, inhibition of HuR-Msi1 ARE interaction; type: binding; details: full-length human HuR, read-out: Ki via FP assay
# T1 construct: full-length human HuR protein was produced by the KU COBRE-PSF Protein Purification Group; made in house
# T1 sequence (Q15717 whole entry): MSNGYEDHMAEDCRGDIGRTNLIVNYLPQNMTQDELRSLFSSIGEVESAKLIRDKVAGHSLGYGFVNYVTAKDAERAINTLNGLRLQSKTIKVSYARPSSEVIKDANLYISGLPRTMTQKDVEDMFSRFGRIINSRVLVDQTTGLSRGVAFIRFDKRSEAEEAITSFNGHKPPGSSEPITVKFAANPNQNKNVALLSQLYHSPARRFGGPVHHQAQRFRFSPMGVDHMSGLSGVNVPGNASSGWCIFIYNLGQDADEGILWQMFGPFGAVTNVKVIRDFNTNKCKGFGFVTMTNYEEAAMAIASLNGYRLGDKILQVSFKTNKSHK
# Description: A fluorescence polarization (FP)-based binding assay was utilized to assess the inhibition of HuR protein interaction with the ARE site of Msi1 mRNA (“HuR-Msi1^ARE”) by compounds of interest. Briefly, full-length human HuR protein was produced by the KU COBRE-PSF Protein Purification Group and Bcl2, Msi1 and XIAP mRNA sequences (16 nt) were designed based on literature precedent^23,24,31,32. Fluorescein labeled RNAs were purchased from Dharmacon with the following sequences: Msi1 RNA: 5′-GCUUUUAUUUAUUUUG-3′-fluorescein; Bcl-2 RNA: 5′-AAAAGAUUUAUUUAUU-3′-fluorescein; XIAP RNA: 5′-UAGUUAUUUUUA UGUC-3′-fluorescein, and a 16-nt degenerative RNA with 3′-fluorescein label was used as a negative control.
# normal cell line WI-38 = test: Cytotoxicity assay, normal cell line; type: cell-based
# Description: The cytotoxicity of the tested compounds in several cancer cell lines (HCT116 β/w, MIAPaCa-2, and MDA-MB-231) was determined by a cytotoxicity assay, where the results are provided in Table 1. Cells were seeded in 96-well culture plates (5,000 cells/well) and treated with titrated compounds in triplicate. After 96 h incubation, cell growth medium was removed and proliferation reagent WST-8 (Sigma) was added to each well and incubated at 37° C. for 1-3 h. Absorbance was then measured with a plate reader at 450 nm with correction at 650 nm. The results were expressed as the percentage of absorbance of treated wells versus that of vehicle control. IC50, the drug concentration causing 50% growth inhibition, was calculated via sigmoid curve fitting using GraphPad Prism 5.0.
# The assay was then utilized to assess cytotoxicity of KH-3 against an expanded panel of cell lines (including normal cell line WI-38), where FIGS. 4A-4C provide the results.
# [2] = test system: PANC-1-Luc orthotopic pancreatic xenografts; test: Orthotopic pancreatic tumor model (PANC-1-Luc); type: in vivo, nude mice
# Description: All animal procedures were approved by the Institutional Animal Care and Use Committee at the University of Kansas Medical Center under the protocol #2015-2247. Dose of KH-3 was pre-determined by a pilot experiment to be 100 mg/kg body weight, intraperitoneal injection (IP), three times weekly. All treatment in this pancreatic cancer section of the present disclosure concerning KH-3 used this dose regimen.
# An orthotopic pancreatic tumor model was used to determine treatment effects of KH-3. Luciferase-expressing PANC-1 cells (PANC-1-Luc, multi-clones) were established by the Preclinical Proof of Concept Core Laboratory (University of Kansas Medical Center, Kansas City, Kans.). A small subcostal laparotomy was performed in female Ncr nu/nu mice to expose the pancreas, and 2×10^5 PANC-1-Luc cells in 50 μL PBS were injected into the tail of pancreas. […]
# The in vivo tumor inhibitory effects of KH-3 were tested in a highly metastatic orthotopic model of pancreatic cancer. […] Tumor progression is monitored by weekly imaging using an IVIS Spectrum imaging system (Caliper Life Sciences). […] After 2 weeks, tumor development in the pancreas of the recipient mice was detected by imaging. […] The dose regimen of KH-3 was determined by a pilot dose-finding experiment to be 100 mg/kg, intraperitoneal injection (IP), three times (3×) weekly, which was the highest dose without showing toxicity. […]
smiles,measurement,setting,value
CC(C)(C)c1ccc(S(=O)(=O)Nc2ccc3sc(/C=C/C(=O)NO)cc3c2)cc1 [KH-3],Ki,[1],810 nM
same,concentration until which not cytotoxic,normal cell line WI-38,about 100 μM
same,mice that developed metastasis (liver),"[2]; 100 mg/kg IP 3× weekly, 5 weeks, 1/10",10%
same,highest dose without showing toxicity,"[2]; pilot dose-finding experiment, IP, three times weekly",100 mg/kg
